This passage reports EC50 results from BindingDB's records for doi:10.1016/j.bmcl.2006.01.032 (Central Pharmaceutical Research Institute, 2006).

This assay in a line: Inhibition of HCV RNA replication in Huh5-2 cells after 48 hrs.
As to `CN(C)C(=O)c1ccc(C(Oc2ccc(-c3nc4cc(C(=O)O)ccc4n3C3CCCCC3)c(F)c2)c2ccc(C(=O)N(C)C)cc2)cc1` [2-{4-[Bis-(4-dimethylcarbamoyl-phenyl)-methoxy]-2-fluoro-phenyl}-1-cyclohexyl-1H-benzoimidazole-5-carboxylic acid], it took 1200 nM to reach a half-maximal effect (EC50). Under `Cc1ccc(C(Oc2ccc(-c3nc4cc(C(=O)O)ccc4n3C3CCCCC3)cc2)c2ccc(C)cc2)cc1` [1-cyclohexyl-2-(4-(dip-tolylmethoxy)phenyl)-1H-benzo[d]imidazole-5-carboxylic acid] stands 3700 nM.

Regarding `O=C(O)c1ccc2c(c1)nc(-c1ccc(OC(c3cccc(F)c3)c3cccc(F)c3)cc1)n2C1CCCCC1` [2-(4-(bis(3-fluorophenyl)methoxy)phenyl)-1-cyclohexyl-1H-benzo[d]imidazole-5-carboxylic acid], the EC50 (as a rule, the concentration giving half of the maximal effect) was found to be 2800 nM. This EC50 and that of the compound before are within 1.5-fold of each other.

As for `O=C(O)c1ccc2c(c1)nc(-c1ccc(OC(c3cccnc3)c3cccnc3)cc1F)n2C1CCCCC1` [1-Cyclohexyl-2-[4-(di-pyridin-3-yl-methoxy)-2-fluoro-phenyl]-1H-benzoimidazole-5-carboxylic acid], the EC50 was found to be 2600 nM. In turn, `O=C(O)c1ccc2c(c1)nc(-c1ccc(OC(c3ccccc3)c3ccccc3)cc1)n2C1CCCCC1` [2-(4-(benzhydryloxy)phenyl)-1-cyclohexyl-1H-benzo[d]imidazole-5-carboxylic acid] yielded an EC50 of 2600 nM. This counts as single-digit micromolar. As for `O=C(O)c1ccc2c(c1)nc(-c1ccc(OC(c3ccccc3)c3ccccc3)cc1F)n2C1CCCCC1` [2-(4-(benzhydryloxy)-2-fluorophenyl)-1-cyclohexyl-1H-benzo[d]imidazole-5-carboxylic acid], a half-maximal effect (EC50) was put at 1900 nM.

In the case of `O=C(O)c1ccc2c(c1)nc(-c1ccc(OC(c3ccc(F)cc3)c3ccc(F)cc3)cc1F)n2C1CCCCC1` [2-(4-(bis(4-fluorophenyl)methoxy)-2-fluorophenyl)-1-cyclohexyl-1H-benzo[d]imidazole-5-carboxylic acid], the EC50 came to 1600 nM. The value for `O=C(O)c1ccc2c(c1)nc(-c1ccc(OC(c3ccc(Cl)cc3)c3ccc(Cl)cc3)cc1)n2C1CCCCC1` [2-(4-(bis(4-chlorophenyl)methoxy)phenyl)-1-cyclohexyl-1H-benzo[d]imidazole-5-carboxylic acid] was 3600 nM; that for `O=C(O)c1ccc2c(c1)nc(-c1ccc(OC(c3ccccc3)c3cccnc3)cc1F)n2C1CCCCC1` (stereo not given) [1-Cyclohexyl-2-[2-fluoro-4-(phenyl-pyridin-3-yl-methoxy)-phenyl]-1H-benzoimidazole-5-carboxylic acid] was 1100 nM. `O=C(O)c1ccc2c(c1)nc(-c1ccc(OC(c3ccc(F)cc3)c3ccc(F)cc3)cc1)n2C1CCCCC1` [2-(4-(bis(4-fluorophenyl)methoxy)phenyl)-1-cyclohexyl-1H-benzo[d]imidazole-5-carboxylic acid]: the 50% effective concentration (EC50) is 2200 nM.
